Laboratory results reported in the supplement of paper PMC6045584.
± gives the standard deviation of the averaged measurements.

What was measured:
[1] = compound: Cn1cc(C2=Nc3cc(NC(=O)C(N)C4CCCCC4)cc4c3C2=CNNC4=O)cn1; experiment: surviving fraction relative to DMSO-only wells; higher = less growth inhibition; conditions: exposure time: 5 days
How it was run: (§1)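 Inhibitors at 0.5, 1, 5, 10, 50, 100, 500 and 1000 nM were applied continuously for five days to tumour cell lines seeded in log phase at 250–500 cells per well in 384-well plates 24 hours earlier. Viability was measured by CellTiter-Glo luminescence and expressed as surviving fraction relative to the median of DMSO-only wells. Luminescence was taken after 10 minutes at room temperature.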

MDV3100 = compound: CNC(=O)c1ccc(N2C(=S)N(c3ccc(C#N)c(C(F)(F)F)c3)C(=O)C2(C)C)cc1F [MDV3100]; experiment: as above; conditions: exposure time: 5 days
How it was run: as §1

| Test System | surviving fraction ([1]; 0.5 nM) | surviving fraction ([1]; 1 nM) | surviving fraction ([1]; 5 nM) | surviving fraction ([1]; 10 nM) | surviving fraction ([1]; 50 nM) | surviving fraction ([1]; 100 nM) | surviving fraction ([1]; 500 nM) | surviving fraction ([1]; 1000 nM) | surviving fraction (MDV3100; 0.5 nM) | surviving fraction (MDV3100; 1 nM) | surviving fraction (MDV3100; 5 nM) | surviving fraction (MDV3100; 10 nM) | surviving fraction (MDV3100; 50 nM) | surviving fraction (MDV3100; 100 nM) | surviving fraction (MDV3100; 500 nM) | surviving fraction (MDV3100; 1000 nM) |
| --- | --- | --- | --- | --- | --- | --- | --- | --- | --- | --- | --- | --- | --- | --- | --- | --- |
| LM7 BONE | 0.979 ± 0.073 | 0.898 ± 0.06 | 1.04 ± 0.07 | 1.01 ± 0.11 | 0.826 ± 0.017 | 0.651 ± 0.033 | 0.119 ± 0.015 | 0.0753 ± 0.0038 | 0.992 ± 0.053 | 1.01 ± 0.073 | 1.07 ± 0.096 | 1.06 ± 0.03 | 1.15 ± 0.09 | 1.14 ± 0.087 | 1.07 ± 0.096 | 0.963 ± 0.05 |
| MHM BONE | 0.998 ± 0.018 | 1.01 ± 0.032 | 1.051 ± 0.01 | 1.031 ± 0.002 | 1.12 ± 0.021 | 1.15 ± 0.034 | 0.394 ± 0.034 | 0.183 ± 0.02 | 1 ± 0.039 | 1 ± 0.054 | 1.01 ± 0.025 | 1.01 ± 0.039 | 1.02 ± 0.02 | 1.01 ± 0.029 | 0.973 ± 0.012 | 0.952 ± 0.0046 |
| SG31 HEADNECK | 1.01 ± 0.076 | 1.06 ± 0.18 | 0.908 ± 0.1 | 0.901 ± 0.11 | 0.881 ± 0.11 | 0.825 ± 0.02 | 0.79 ± 0.021 | 0.669 ± 0.052 | 0.928 ± 0.059 | 1.06 ± 0.037 | 1.01 ± 0.14 | 1.02 ± 0.14 | 1.07 ± 0.057 | 0.969 ± 0.17 | 1.18 ± 0.18 | 1.06 ± 0.028 |
| S68 BREAST | 0.693 ± 0.42 | 1.17 ± 0.18 | 1.02 ± 0.12 | 0.901 ± 0.12 | 0.42 ± 0.048 | 0.345 ± 0.041 | 0.135 ± 0.012 | 0.0897 ± 0.0071 | 0.974 ± 0.2 | 1.04 ± 0.035 | 1.08 ± 0.11 | 1.04 ± 0.027 | 1.24 ± 0.076 | 1.34 ± 0.2 | 0.962 ± 0.21 | 0.949 ± 0.22 |
| SAOS2 BONE | 1.1493 ± 0.00058 | 1.08 ± 0.049 | 1.073 ± 0.0011 | 1.17 ± 0.077 | 0.882 ± 0.065 | 0.728 ± 0.03 | 0.113 ± 0.017 | 0.0473 ± 0.0046 | 1.08 ± 0.054 | 1.07 ± 0.026 | 1.17 ± 0.026 | 1.07 ± 0.031 | 1.14 ± 0.033 | 1.14 ± 0.1 | 1.11 ± 0.085 | 1.07 ± 0.12 |
| HS578T BREAST | 0.986 ± 0.027 | 1.06 ± 0.057 | 0.946 ± 0.14 | 0.927 ± 0.037 | 0.788 ± 0.051 | 0.485 ± 0.049 | 0.162 ± 0.0082 | 0.174 ± 0.021 | 0.974 ± 0.073 | 1.05 ± 0.041 | 1.03 ± 0.056 | 0.979 ± 0.091 | 1.15 ± 0.096 | 1.02 ± 0.28 | 1.01 ± 0.053 | 0.991 ± 0.085 |
| CAL72 BONE | 1.04 ± 0.03 | 1.02 ± 0.038 | 1.02 ± 0.019 | 1.02 ± 0.04 | 0.937 ± 0.052 | 0.836 ± 0.043 | 0.111 ± 0.011 | 0.147 ± 0.01 | 0.965 ± 0.087 | 0.992 ± 0.041 | 1 ± 0.073 | 1 ± 0.021 | 1.08 ± 0.076 | 0.986 ± 0.17 | 1.05 ± 0.13 | 1.02 ± 0.15 |
| MFM223 BREAST | 1.15 ± 0.029 | 1.1 ± 0.012 | 1.09 ± 0.11 | 1.05 ± 0.069 | 0.748 ± 0.047 | 0.408 ± 0.036 | 0.226 ± 0.018 | 0.193 ± 0.025 | 1.1 ± 0.12 | 1.14 ± 0.17 | 1.19 ± 0.17 | 1.12 ± 0.17 | 1.06 ± 0.074 | 1.08 ± 0.041 | 1.09 ± 0.036 | 1.02 ± 0.095 |
| H23 LUNG | 1.05 ± 0.052 | 1.07 ± 0.092 | 1.09 ± 0.046 | 1.074 ± 0.0038 | 1.11 ± 0.1 | 1.1 ± 0.096 | 1.02 ± 0.084 | 0.944 ± 0.031 | 0.978 ± 0.013 | 0.95 ± 0.0056 | 0.944 ± 0.03 | 0.942 ± 0.011 | 0.954 ± 0.026 | 0.9877 ± 0.0021 | 0.93 ± 0.034 | 0.891 ± 0.02 |
